Experimental data taken from patent publication US20090318527A1, “INDOLE COMPOUNDS AND METHODS OF USE THEREOF” (priority 2008, published 2009).
Where a name gives a salt, the structure may show the parent alone.

What was measured:
[1] = molecular target: T1, human 5-HT2A receptor (Homo sapiens, UniProt P28223); assay: Intracellular calcium flux assay, HEK 293 cells stably expressing 5-HT2A; format: cell-based; details: for Emax at 10 µM: HEK293, read-out: 5-HT2A functional activity (N/A class); for 5-HT2A response as percentage of the maximal 5-HT response @ 10,000: EC50 not reached; for EC50 / 5-HT2A efficacy as percentage of the maximal 5-HT response ± SD: calcium flux, at least three independent experiments; for EC50: each in triplicate, read-out: 5-HT2A mean EC50 ± SD;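 on all read-outs here: fluorescent calcium dye read on FLIPR Tetra, peak signal above baseline within 60 s after compound addition, seven concentrations spanning 10 pM to 10 µM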
T1 construct: expressed in transfected cells; host or cells: HEK 293
T1 sequence (P28223 whole entry): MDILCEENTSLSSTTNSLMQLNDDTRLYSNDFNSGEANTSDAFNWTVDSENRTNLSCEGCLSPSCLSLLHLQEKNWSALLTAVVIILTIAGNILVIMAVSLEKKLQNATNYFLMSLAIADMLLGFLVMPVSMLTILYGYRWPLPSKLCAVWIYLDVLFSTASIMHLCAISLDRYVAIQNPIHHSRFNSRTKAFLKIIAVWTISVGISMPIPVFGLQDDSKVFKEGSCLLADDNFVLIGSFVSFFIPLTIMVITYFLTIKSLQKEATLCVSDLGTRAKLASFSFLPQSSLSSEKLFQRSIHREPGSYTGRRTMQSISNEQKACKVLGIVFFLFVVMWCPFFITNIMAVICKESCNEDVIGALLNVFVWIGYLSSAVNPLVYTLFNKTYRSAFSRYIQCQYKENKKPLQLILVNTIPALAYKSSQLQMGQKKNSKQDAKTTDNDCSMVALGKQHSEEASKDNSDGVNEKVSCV

[2] = molecular target: T2, human 5-HT2B receptor (Homo sapiens, UniProt P41595); assay: Intracellular calcium flux assay, HEK 293 cells stably expressing 5-HT2B; format: cell-based; details: for EC50 / Emax: calcium flux, at least three independent experiments; for EC50: each in triplicate, read-out: 5-HT2B mean EC50 ± SD; for Emax at 10 µM: HEK293, read-out: 5-HT2B functional activity (N/A class); for Emax: HEK293, read-out: 5-HT2B efficacy as percentage of the maximal 5-HT response ± SD;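 on all read-outs here: calcium dye fluorescence read on a FLIPR Tetra, peak signal above baseline within 60 s after compound addition, seven-point concentration series from 10 pM up to 10 µM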
T2 construct: expressed in transfected cells; host or cells: HEK 293
T2 sequence (P41595 whole entry): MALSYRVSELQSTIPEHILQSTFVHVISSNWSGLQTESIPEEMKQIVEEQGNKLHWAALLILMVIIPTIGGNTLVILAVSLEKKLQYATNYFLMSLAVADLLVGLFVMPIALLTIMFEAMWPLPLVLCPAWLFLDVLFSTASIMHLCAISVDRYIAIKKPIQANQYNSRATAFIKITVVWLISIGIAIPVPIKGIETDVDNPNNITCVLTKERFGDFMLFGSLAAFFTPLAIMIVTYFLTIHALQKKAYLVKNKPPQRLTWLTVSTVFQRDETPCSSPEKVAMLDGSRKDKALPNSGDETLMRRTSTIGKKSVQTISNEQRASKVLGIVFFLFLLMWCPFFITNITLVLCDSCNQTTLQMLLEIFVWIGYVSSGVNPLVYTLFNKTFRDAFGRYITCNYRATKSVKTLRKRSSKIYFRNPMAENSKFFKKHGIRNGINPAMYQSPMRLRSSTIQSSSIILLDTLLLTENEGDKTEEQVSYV

[3] = molecular target: T3, 5-HT2C (Homo sapiens, UniProt P28335); assay: Intracellular calcium flux assay, HEK 293 cells stably expressing 5-HT2C; format: cell-based; set-up: expressed in transfected cells; host or cells: HEK 293; details: for Emax: HEK293, read-out: 5-HT2C efficacy as percentage of the maximal 5-HT response ± SD, at least three independent experiments, entries marked a (42, 50, 51, 52) single measurements; for EC50: read-out: 5-HT2C mean EC50 ± SD;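 on all read-outs here: calcium dye fluorescence read on FLIPR Tetra as peak signal above baseline within 60 s of compound addition, seven concentrations from 10 pM to 10 µM, each in triplicate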
T3 sequence (P28335 33-458): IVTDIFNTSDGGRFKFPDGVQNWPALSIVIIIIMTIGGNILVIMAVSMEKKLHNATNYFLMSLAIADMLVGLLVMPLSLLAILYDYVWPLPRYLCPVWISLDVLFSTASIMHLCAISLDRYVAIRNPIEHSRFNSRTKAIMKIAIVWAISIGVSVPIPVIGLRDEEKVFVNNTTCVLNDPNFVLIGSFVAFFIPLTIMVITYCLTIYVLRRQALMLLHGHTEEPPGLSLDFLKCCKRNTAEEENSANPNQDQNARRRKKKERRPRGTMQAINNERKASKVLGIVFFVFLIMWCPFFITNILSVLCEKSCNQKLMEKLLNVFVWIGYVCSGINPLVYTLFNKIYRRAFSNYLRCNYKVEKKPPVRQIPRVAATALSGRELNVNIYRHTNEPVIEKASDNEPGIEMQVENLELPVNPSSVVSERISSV

[4] = at least three independent experiments, entries marked a (42, 50, 51, 52) single measurements

Structure (SMILES) | Emax at 10 µM ([1]; at 10,000 nM) [%] | EC50 [2] [nM] | melting point [°C] | Emax [3] [%] | EC50 [3, 4] [nM] | Emax at 10 µM ([2]; at 10,000 nM) [%] | further results
CCCOc1cc(F)cc2c1c(CCN(C)C)cn2CC [Compound 36, 2-(1-Ethyl-6-fluoro-4-propoxy-1H-indol-3-yl)-N,N-dimethylethanamine] | < 10 | 543 ± 325 | 68.9 to 70.1 | 87 | 659 ± 352 | – | –
CCCn1cc(CCN(C)C)c2c(OCC)c(F)ccc21.Cl [Compound 61, 2-(4-Ethoxy-5-fluoro-1-propyl-1H-indol-3-yl)-N,N-dimethylethanamine hydrochloride] | < 10 | – | 141 to 143 | 38 | 13 ± 1.51 | < 10 | –
CCCOc1ccc(F)c2c1c(CCN(C)C)cn2CCC [Compound 30, 2-(7-Fluoro-4-propoxy-1-propyl-1H-indol-3-yl)-N,N-dimethylethanamine] | < 10 | – | – | 37 | 858 ± 289 | < 10 | –
CCCn1cc(CCN(C)C)c2c(OCC)ccc(F)c21 [Compound 29, 2-(4-Ethoxy-7-fluoro-1-propyl-1H-indol-3-yl)-N,N-dimethylethanamine] | < 10 | – | – | 43 | 346 ± 97 | < 10 | –
CCCOc1cc(F)cc2c1c(CCN(C)C)cn2CCC.Cl [Compound 39, 2-(6-Fluoro-4-propoxy-1-propyl-1H-indol-3-yl)-N,N-dimethylethanamine hydrochloride] | < 10 | 3120 | 170.3 to 171.4 | 65 | 762 ± 469 | – | Emax [2]: 26%
CCCOc1ccc(F)c2c1c(CCN(C)C)cn2CC [Compound 25, 2-(1-Ethyl-7-fluoro-4-propoxy-1H-indol-3-yl)-N,N-dimethylethanamine] | < 10 | 1450 | 49 to 50 | 75 | 168 ± 27.2 | – | Emax [2]: 31%
CCCn1cc(CCN(C)C)c2cc(F)c(O)cc21 [Compound 84, 3-[2-(Dimethylamino-ethyl)]-5-fluoro-1-propyl-1H-indol-6-ol] | < 10 | – | 157 to 159 | 70 | 507 ± 314 | < 10 | –
COc1cc(F)cc2c1c(CCN(C)C)cn2C.Cl [Compound 31, 2-(6-Fluoro-4-methoxy-1-methyl-1H-indol-3-yl)-N,N-dimethylethanamine hydrochloride] | – | 55 ± 7.77 | 260.6 to 261.3 | 87 | 9.9 ± 3.27 | – | 5-HT2A response as percentage of the maximal 5-HT response @ 10,000 ([1]; at 10,000 nM): (21 ± 7.9 @ 10,000) %; EC50 [1]: > 10000 nM; Emax [2]: 51%
CCCn1cc(CCN(C)C)c2c(OC)ccc(F)c21 [Compound 28, 2-(7-Fluoro-4-methoxy-1-propyl-1H-indol-3-yl)-N,N-dimethylethanamine] | < 10 | – | – | 45 | 76 ± 39.1 | < 10 | –
CCn1cc(CCN(C)C)c2c(OC)c(F)ccc21.Cl [Compound 41, 2-(1-Ethyl-5-fluoro-4-methoxy-1H-indol-3-yl)-N,N-dimethylethanamine hydrochloride] | < 10 | – | 149 to 150 | 37 | 1.4 ± 0.19 | < 10 | –
CCOc1cc(F)cc2c1c(CCN(C)C)cn2C.Cl [Compound 32, 2-(4-Ethoxy-6-fluoro-1-methyl-1H-indol-3-yl)-N,N-dimethylethanamine hydrochloride] | – | 166 ± 113 | 202.2 to 203.3 | 85 | 31 ± 23.6 | – | 5-HT2A response as percentage of the maximal 5-HT response @ 10,000 ([1]; at 10,000 nM): (26 ± 7.6 @ 10,000) %; EC50 [1]: > 10000 nM; Emax [2]: 66%
COc1ccc(Br)c2c1c(CCN(C)C)cn2C.Cl [Compound 73, 2-(7-Bromo-4-methoxy-1-methyl-1H-indol-3-yl)-N,N-dimethylethanamine hydrochloride] | < 10 | – | 235 to 236 | 48 | 274 ± 57.7 | < 10 | –
CCn1cc(CCN(C)C)c2cc(F)c(O)cc21 [Compound 83, 3-[2-(Dimethylamino-ethyl)]-1-ethyl-5-fluoro-1H-indol-6-ol] | – | – | – | – | 221 ± 27 | – | 5-HT2A functional activity (N/A class) ([1]; at 10,000 nM): N/A (N/A: <10% max HT @ 10,000 nM); 5-HT2B functional activity (N/A class) ([2]; at 10,000 nM): N/A (N/A: <10% max HT @ 10,000 nM); 5-HT2C efficacy as percentage of the maximal 5-HT response ± SD [3, 4]: (73 ± 4%)
CCOc1ccc(F)c2c1c(CCN(C)C)cn2CC [Compound 24, 2-(4-Ethoxy-1-ethyl-7-fluoro-1H-indol-3-yl)-N,N-dimethylethanamine] | – | > 5000 | 59 to 60 | 77 | 57 ± 17.1 | – | 5-HT2A response as percentage of the maximal 5-HT response @ 10,000 ([1]; at 10,000 nM): (21 ± 5.5 @ 10,000) %; EC50 [1]: > 2000 nM; 5-HT2B response as percentage of the maximal 5-HT response @ 10,000 ([2]; at 10,000 nM, EC50 not reached): (14 ± 4.8 @ 10,000) %
CN(C)CCc1cn(C)c2c(F)ccc(F)c12.Cl [Compound 65, 2-(4,7-Difluoro-1-methyl-1H-indol-3-yl)-N,N-dimethylethanamine hydrochloride] | < 10 | – | 209 to 210 | 41 | 16 ± 3.46 | < 10 | –
CN(C)CCc1cn(C)c2cc(F)cc(OCc3ccccc3)c12 [Compound 51, 4-Benzyloxy-3-(2-dimethylaminoethyl)-6-fluoro-1-methyl-1H-indole] | < 10 | – | 79 to 80 | 99 | 233 | < 10 | –
CCn1cc(CCN(C)C)c2c(OC)ccc(F)c21 [Compound 23, 2-(1-Ethyl-7-fluoro-4-methoxy-1H-indol-3-yl)-N,N-dimethylethanamine] | – | – | – | 71 | 13 ± 1.74 | < 10 | 5-HT2A response as percentage of the maximal 5-HT response @ 10,000 ([1]; at 10,000 nM): (17 ± 3.7 @ 10,000) %; EC50 [1]: > 10000 nM
CCCOc1c(F)ccc2c1c(CCN(C)C)cn2CCC.Cl | – | – | 142 to 145 | – | – | – | –
CCCn1cc(CCN(C)C)c2c(OC)c(F)ccc21.Cl [Compound 42, 2-(5-Fluoro-4-methoxy-1-propyl-1H-indol-3-yl)-N,N-dimethylethanamine hydrochloride] | < 10 | – | 111 to 113 | 34 | 741 | < 10 | –
CCOc1c(F)ccc2c1c(CCN(C)C)cn2C [Compound 59, 2-(4-Ethoxy-5-fluoro-1-methyl-1H-indol-3-yl)-N,N-dimethylethanamine hydrochloride] | < 10 | – | – | 51 | 0.82 ± 0.23 | < 10 | –
NCCc1c[nH]c2ccc(O)cc12 [Compound 5-HT, 5-hydroxytryptamine, reference compound] | – | – | – | – | – | – | 5-HT2A efficacy as percentage of the maximal 5-HT response ± SD [1]: (100%)
CCCOc1ccc(F)c2c1c(CCN(C)C)cn2C [Compound 27, 2-(7-Fluoro-1-methyl-4-propoxy-1H-indol-3-yl)-N,N-dimethylethanamine] | < 10 | 334 ± 88.7 | – | 75 | 96 ± 19.8 | – | Emax [2]: 54%
CCOc1ccc(F)c2c1c(CCN(C)C)cn2C [Compound 26, 2-(4-Ethoxy-7-fluoro-1-methyl-1H-indol-3-yl)-N,N-dimethylethanamine] | – | 217 ± 95.9 | – | 82 | 43 ± 18.8 | – | 5-HT2A efficacy as percentage of the maximal 5-HT response ± SD [1]: (25 ± 4.1%); EC50 [1]: 1490 nM; Emax [2]: 28%
